Literature values as cited in patent publication EP0086468A2, “Oral anti-diabetic preparation” (HOECHST UK LIMITED, priority 1982, dated 1983).

Test system: plasma glucose
Conditions: intravenous bolus injection, published data

COc1ccc(Cl)cc1C(=O)NCCc1ccc(S(=O)(=O)NC(=O)NC2CCCCC2)cc1 [glibenclamide]
nadir in plasma glucose levels, time after injection: about 40 minutes
